These results are taken from ChEMBL document CHEMBL5055619, “Tetrahydrofuran-Based Transient Receptor Potential Ankyrin 1 (TRPA1) Antagonists: Ligand-Based Discovery, Activity in a Rodent Asthma Model, and Mechanism-of-Action via Cryogenic Electron Microscopy” (J Med Chem, 2021).

For orientation: IC50 means the point on the concentration scale where inhibition reaches its midpoint. By logD is commonly meant lipophilicity at a set pH, counting ionised and neutral species.

Data set [1] in a line: Metabolic stability in rat liver microsomes assessed as clearance by LC/MS-MS analysis. The data set is classed as ADME, Microsome. For orientation: Liver microsomes are a subcellular fraction often used to study metabolism.
Data set [2] is described as follows: Antagonist activity at human TRPA1 expressed in CHO cells assessed as cinnamaldehyde-induced calcium flux measured after 90 mins by FLIPR assay. The data set is classed as cell-based. To be noted: 1.5 h.
Data set [3] in a line: Lipophilicity, logD of compound. The data set is classed as physicochemical. The conditions noted are these: octanol/water.
Data set [4] is described as follows: Metabolic stability in human liver microsomes assessed as clearance by LC/MS-MS analysis. The data set is classed as ADME, Microsome.
Data set [5] in a line: Stability in rat plasma assessed as compound remaining after 4 hrs. The data set is classed as ADME, cell-free. The conditions noted are these: read-out: Stability.
The nature of data set [6]: Stability in human plasma assessed as compound remaining after 4 hrs. The data set is classed as ADME, cell-free. The conditions noted are these: read-out: Stability.
Data set [7] can be described thus: Kinetic solubility of the compound. The data set is classed as physicochemical. To be noted: read-out: Kinetic_solubility.

As to `Cn1cnc2ncn(Cc3nn(CCCOc4cccc(Cl)c4)c(=O)o3)c(=O)c21`, the CLhep predicted in data set [1] is 44 mL/min/kg; in data set [4], 16 mL/min/kg. For the same compound, the IC50 in data set [2] is 14 nM. In addition, the logD in data set [3] amounted to 1.3.

Regarding `Cn1cnc2ncn(Cc3nn([C@@H]4CC[C@@H](Oc5cccc(F)c5)C4)c(=O)o3)c(=O)c21`, the CLhep predicted in data set [1] was 24 mL/min/kg; in data set [4], 8 mL/min/kg. The concentration for half-maximal inhibition (IC50) in data set [2] worked out at 410 nM. In addition, in data set [3], the logD was 1.8.

For the compound `O=c1c2cccnc2ncn1Cc1nc([C@H]2[C@@H]3CN(c4cc(Cl)ccn4)C[C@@H]32)no1`, the CLhep predicted in data set [1] is 13 mL/min/kg; in data set [4], 10 mL/min/kg. Also, the IC50 in data set [2] came out at 75 nM. This compound also showed a logD in data set [3] of 2.4.

Regarding `Cn1cnc2ncn(Cc3nn([C@@H]4CO[C@@H](c5ccc(Cl)cc5)C4)c(=O)o3)c(=O)c21`, the CLhep predicted in data set [1] was 23 mL/min/kg; in data set [4], 9.5 mL/min/kg. Also, in data set [2], the IC50 was found to be 2 nM. The logD in data set [3] was 1.6. The remaining at 4 h in data set [5] was determined as 61%; in data set [6], 76%.

As to `Cn1cnc2ncn(Cc3nc([C@@H]4[C@@H]5Cc6c(Cl)cccc6[C@@H]54)no3)c(=O)c21`, the IC50 in data set [2] turned out to be 32 nM. The compound further displayed a logD in data set [3] of 2.6. In data set [7], the solubility kinetic was below 1 µM.

On to `Cn1cnc2ncn(Cc3nn([C@H]4CC[C@H](c5ccc(Cl)cc5)CC4)c(=O)o3)c(=O)c21`, for which the values for the CLhep predicted in data set [1] and in data set [4] were 19 mL/min/kg and 4.3 mL/min/kg, respectively. Moreover, the IC50 in data set [2] was above 20000 nM. Further, in data set [3], the logD was 2.6.

With `Cn1cnc2ncn(Cc3nc([C@@H]4CO[C@@H](c5ccc(F)cc5)C4)no3)c(=O)c21`, the figures for the CLhep predicted in data set [1] and in data set [4] were 9 mL/min/kg and 4.3 mL/min/kg, respectively. Further, in data set [2], the IC50 was found to be 7.6 nM.

As for `Cc1ncn2ncn(Cc3nc([C@H]4[C@@H]5CN(c6cccc(Cl)c6)C[C@@H]54)no3)c(=O)c12`, the CLhep predicted in data set [1] was 27 mL/min/kg; in data set [4], 14 mL/min/kg. Besides, the half-inhibitory concentration (IC50) in data set [2] amounted to 50 nM. In data set [3], this compound returned a logD of 2.6.

`Cn1cnc2ncn(Cc3nn([C@H]4C[C@H](Oc5cccc(Cl)c5)C4)c(=O)o3)c(=O)c21`: the results for the CLhep predicted in data set [1] and in data set [4] were 11 mL/min/kg and 6 mL/min/kg, respectively. The half-inhibitory concentration (IC50) in data set [2] stood at 7.3 nM. The compound further registered a logD in data set [3] of 2.2.
